Experimental findings from US9408856B2, “Topical steroidal formulations” (Temple University—Of The Commonwealth System of Higher …, priority 2008, dated 2016) are described below.

Each structure is given as a SMILES string. Entries after “also recorded” stand apart in the source; their conditions may differ.

The subject of data set [1] is dexamethasone-induced thymic and splenic atrophy. Kind of data set: Dexamethasone-induced thymic and splenic atrophy in mice. Type of data set: in vivo, CD-1 mice. The settings on record: for protection against DEX-induced thymic and splenic atrophy: CD-1 mice. As to the method:
Administration of dehydroepiandrosterone (DHEA, 60 mg/kg, s.c.) for three days partially reverse thymic and splenic atrophy induced by a single injection of dexamethasone (1.6 mg/mouse). In this experiment, the efficacy of either 10 mg/kg or 20 mg/kg DHEA administered s.c. versus the effect of 10 mg/kg or 20 mg/kg fluasterone was investigated.
5% Cremophor (polyethoxylated castor oil; Sigma Chemicals)-95% saline vehicle was prepared using 95 mL of sterile 0.9% NaCl (filtered through sterile 0.22 micron filter) and 5 mL of Cremophor. The Cremophor was dissolved by swirling for approximately 5 minutes.
Dexamethasone solutions were prepared by dissolving dexamethasone (Sigma Chemicals) in absolute ethanol. For example, 71.9 mg of dexamethasone was dissolved in 2.9 mL of absolute ethanol. In order to prevent precipitation, the solution was kept on a hotplate between injections.
For the 10 mg/kg suspension, 25.7 mg of DHEA was weighed out, transferred to a glass scintillation vial, and 10.3 mL of the Cremophor-saline vehicle was added. The DHEA suspension was homogenized using a Tissumizer at 80% power for 30 sec. The Tissumizer was rinsed with 70% ethanol prior to homogenization. After the 10 mg/kg DHEA suspension was homogenized the probe was rinsed 2× with 50 mL of absolute ethanol, then with 50 mL of 70% ethanol, and then dried with sterile gauze. For the 20 mg/kg DHEA suspension, 50.9 mg DHEA was suspended in 10.2 mL of Cremophor-saline vehicle.
19.4 mg of fluasterone was weighed out and transferred to a glass scintillation vial. 7.8 mL of Cremophor-saline vehicle was added to the vial and the contents of the vial were homogenized with a Tissumizer as described previously. Prior to preparing the 20 mg/kg fluasterone, the probe was rinsed 2× with 50 mL of absolute ethanol and 1× with 50 mL of 70% ethanol. For the 20 mg/kg suspension, 47.0 mg was weighed out and transferred to a glass scintillation vial. 9.4 mL of Cremophor-saline vehicle was added to the vial and the contents of the vial were homogenized with a Tissumizer as described above.
Female CD-1 mice, 43-45 days old, were obtained from Charles River Laboratories. The mice were housed 5 per cage in plastic shoebox cages with ad libitum access to Purina chow 5015 and water in the Pharmacy CAF with 12 hr of alternating light and darkness.
Prior to the experiment the mice were weighed, separated into 6 groups containing 5 mice each and treated as follows:
Mice were treated s.c. with 0.1 mL of 5% Cremophor-95% saline for three days. On the third day, the mice were also treated s.c. with 1.6 mg of dexamethasone dissolved in 0.06 mL of absolute. ethanol.
Mice were treated s.c. with 0.25 mg of DHEA suspended in 0.1 mL of 5% Cremophor-95% saline for three days. On the third day, the mice were also treated s.c. with 1.6 mg of dexamethasone dissolved in 0.06 mL of absolute ethanol.
Mice were treated s.c. with 0.5 mg of DHEA suspended in 0.1 mL of 5% Cremophor-95% saline for three days. On the third day, the mice were also treated s.c. with 1.6 mg of dexamethasone dissolved in 0.06 mL of absolute ethanol.
Mice were treated s.c. with 0.25 mg of fluasterone suspended in 0.1 mL of 5% Cremophor-95% saline for three days. On the third day, the mice were also treated s.c. with 1.6 mg of dexamethasone dissolved in 0.06 mL of absolute ethanol.
Mice were treated s.c. with 0.5 mg of fluasterone suspended in 0.1 mL of 5% Cremophor-95% saline for three days. On the third day, the mice were also treated s.c. with 1.6 mg of dexamethasone dissolved in 0.06 mL of absolute ethanol.
All s.c. injections were made in the nape. All mice were lightly anesthetized while the s.c. injections were done.
Twenty-four hours after dexamethasone treatment, the mice were euthanized by an overdose of isoflurane. The spleen and thymus were removed, cleaned of any adventitia, rinsed, blotted on filter paper, and weighed. […]

The test system of data set [2] is TPA-stimulated epidermal DNA synthesis in mouse epidermis. Kind of data set: TPA-induced epidermal DNA synthesis in mouse epidermis, oral fluasterone. The data set is classed as in vivo, CD-1 mice. Particulars: Table 20; TPA 2 μg topical after sesame oil and suspension vehicle p.o. only; 20 h; group mean.
Where [3] appears, read: Table 12, 10 mg/kg s.c. 3 days + dexamethasone 1.6 mg s.c. on day 3, 24 h after dexamethasone.
Setting [4] is: Table 12, 20 mg/kg s.c. 3 days + dexamethasone 1.6 mg s.c. on day 3, 24 h after dexamethasone.
[5] abbreviates: Table 14, micronized steroid 10 mg/kg + dexamethasone.
Where [6] appears, read: Table 14, micronized steroid 20 mg/kg + dexamethasone.
The mark [7] stands for this setting: Table 15, steroid 10 mg/kg in Cremophor-saline + dexamethasone.
[8] abbreviates: Table 16, steroid 5 mg/kg + dexamethasone.
Where [9] appears, read: Table 16, steroid 10 mg/kg + dexamethasone.

For `C[C@]12CCCCC1=CC[C@@H]1[C@@H]2CC[C@]2(C)C(=O)[C@H](F)C[C@@H]12` [Fluasterone, 16α-fluoro-5-androsten-17-one], the “protection against DEX-induced thymic and splenic atrophy” value in data set [1] (5 mg/kg) is given as “significant protection”; in data set [1] (10 mg/kg) it was “highly active; also recorded: as active as DHEA at 60 mg/kg”. The “potency relative to DHEA in protecting against dexamethasone-induced thymic and splenic atrophy” value in data set [1] (Example 8, micronized) is recorded as “about 6 ×”. Also, the “Body Weight” value is recorded as 24.3 ± 1.0 in data set [1] (setting [3]); 25.2 ± 0.6 in data set [1] (setting [4]); 26.7 ± 3.6 in data set [1] (setting [5]); 27.2 ± 3.1 in data set [1] (setting [6]); 24.8 ± 0.8 in data set [1] (setting [7]); 25.7 ± 1.7 in data set [1] (setting [8]). Moreover, in data set [1] (setting [9]), the “Body Weight” value amounted to 25.2 ± 1.4. In addition, the Spleen wt in data set [1] (setting [3]) was found to be 77.5 ± 14.4; in data set [1] (setting [4]), 73.9 ± 13.8; in data set [1] (setting [5]), 83.0 ± 6.2; in data set [1] (setting [6]), 83.1 ± 7.9; in data set [1] (setting [7]), 80.0 ± 7.7; in data set [1] (setting [8]), 62.0 ± 10.2. In addition, the Spleen wt in data set [1] (setting [9]) is 89.4 ± 12.3. The “Spleen wt/BW” value was determined as 3.2 ± 0.5 in data set [1] (setting [3]); 2.9 ± 0.6 in data set [1] (setting [4]); 3.1 ± 0.3 in data set [1] (setting [5]); 3.1 ± 0.4 in data set [1] (setting [6]); 3.2 ± 0.4 in data set [1] (setting [7]); 2.4 ± 0.3 in data set [1] (setting [8]). In addition, the “Spleen wt/BW” value in data set [1] (setting [9]) turned out to be 3.5 ± 0.4. For the same compound, the Thymus wt in data set [1] (setting [3]) is recorded as 60.9 ± 5.2; in data set [1] (setting [4]) it was 60.8 ± 5.3; in data set [1] (setting [5]), 68.0 ± 11.5; in data set [1] (setting [6]), 66.3 ± 9.0; in data set [1] (setting [7]), 67.5 ± 3.9; in data set [1] (setting [8]), 50.8 ± 10.9. Also, in data set [1] (setting [9]), the Thymus wt came to 65.6 ± 4.4. Further, the “Thymus wt/BW” value in data set [1] (setting [3]) came to 2.5 ± 0.3; in data set [1] (setting [4]), 2.4 ± 0.2; in data set [1] (setting [5]) it was 2.5 ± 0.3; in data set [1] (setting [6]) it was 2.4 ± 0.2; in data set [1] (setting [7]) it was 2.7 ± 0.2; in data set [1] (setting [8]), 2.0 ± 0.3. In data set [1] (setting [9]), the “Thymus wt/BW” value was found to be 2.6 ± 0.2. Further, in data set [1] (fluasterone = 1, mice), the “Approximate Potency Compared to Fluasterone in Protecting Against DEX-induced Thymic and Splenic Involution” value worked out at 1. The “rank of activity among steroids tested against DEX-induced thymic and splenic involution” value is listed as “most active steroid tested” in data set [1] (mice) and “most potent compound” in data set [1] (mice, listed as fluasterone).
For `CCCCCCCCCCCCCC(=O)O[C@@H]1[C@@H](C)[C@@]2(O)[C@@H](C=C(CO)C[C@]3(O)C(=O)C(C)=C[C@@H]23)[C@@H]2C(C)(C)[C@]12OC(C)=O` [TPA, 12-O-tetradecanoylphorbol-13-acetate, reference compound], in data set [2], the “cpm/μg DNA” value turned out to be 374.1 ± 16.8 cpm/μg DNA and the “dpm/μg DNA” value stood at 603.4 ± 36.8 dpm/μg DNA.
